Assays:
TBL1 = molecular target: T1, TBL1 (Homo sapiens, UniProt O60907); assay: TBL1 inhibition (Table 5); format: binding
T1 construct: full length recombinant human TBL1 or full length recombinant human β-catenin; purchased ABNOVA
T1 sequence (O60907 1-577): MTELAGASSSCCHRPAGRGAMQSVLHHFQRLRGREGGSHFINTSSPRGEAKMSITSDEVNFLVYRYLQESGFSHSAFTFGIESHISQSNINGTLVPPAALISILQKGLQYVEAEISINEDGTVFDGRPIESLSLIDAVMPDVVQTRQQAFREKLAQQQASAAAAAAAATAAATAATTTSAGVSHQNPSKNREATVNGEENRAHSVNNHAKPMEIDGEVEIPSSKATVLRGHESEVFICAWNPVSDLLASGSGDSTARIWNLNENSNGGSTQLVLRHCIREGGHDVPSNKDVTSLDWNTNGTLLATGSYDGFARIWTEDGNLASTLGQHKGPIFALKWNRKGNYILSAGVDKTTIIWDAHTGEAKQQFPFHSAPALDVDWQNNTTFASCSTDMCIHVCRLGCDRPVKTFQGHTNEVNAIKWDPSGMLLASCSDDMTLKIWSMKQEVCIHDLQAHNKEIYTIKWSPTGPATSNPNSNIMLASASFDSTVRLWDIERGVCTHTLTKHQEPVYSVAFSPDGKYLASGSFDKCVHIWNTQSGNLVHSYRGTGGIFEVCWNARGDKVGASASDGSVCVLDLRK
Experimental: Briefly, for homologous competitive assay, a single concentration of 50 nM of biotinylated compound was added to the wells containing TBL1 recombinant protein, in the presence of various concentrations of unlinked compound (range of 0.1 nM to 10 μM) diluted in binding buffer. The sealed plate was incubated for 2 h at RT, and then processed as described above. For the heterologous competitive binding assay, 75 nM of β-catenin was used in place of the biotinylated compound, and the bounded protein was detected by anti-β-catenin antibody (Cell Signaling Tech) followed by secondary HRP-conjugated antibody.
To determine whether the ability of BC2059 to interfere with TBL1:β-catenin complex formation is due to direct interaction between TBL1 or β-catenin and the compound, we performed saturation binding assays in a in vitro system. High affinity binding Elisa 96 well plate (Maxisorp, Nunc) was coated with 100 ul to each well of full length recombinant human TBL1 or full length recombinant human β-catenin diluted to a final concentration of 1 ug/ml in carbonate/bicarbonate coating buffer, sealed to prevent evaporation, and incubated O/N at 4° C. After washing the plate 3 times with PBS 0.05% Tween-20, and blocking the plate with 200 μl of PBS 1% BSA each well for 1 h at RT, 100 μl of biotinylated compound was added to each well containing the recombinant proteins, at concentration in the range of 0.1 nM to 10 μM, diluted in binding buffer (50 mM TrisHCl pH 7.4, 10 mM MgCl2). The sealed plate was incubated for 2 h at RT, washed 3 times with PBS 0.05% Tween-20, and then the bounded compound was detected by streptavidin-HRP conjugated antibody (Cell Signaling Tech) diluted in blocking buffer. Elisa was developed by addition of ABTS HRP substrate (SIGMA), and the optical density (OD) for each well was read with a microplate reader set to 405 nm. To validate the saturation binding assay, homologous and heterologous competitive binding experiment were performed in an in vitro system. Briefly, for homologous competitive assay, a single concentration of 50 nM of biotinylated compound was added to the wells containing TBL1 recombinant protein, in the presence of various concentrations of unlinked compound (range of 0.1 nM to 10 uM) diluted in binding buffer. The sealed plate was incubated for 2 h at RT, and then processed as described above. For the heterologous competitive binding assay, 75 nM of β-catenin was used in place of the biotinylated compound, and the bounded protein was detected by anti-β-catenin antibody (Cell Signaling Tech) followed by secondary HRP-conjugated antibody.

[1] = molecular target: T2, full length recombinant human TBL1 (Homo sapiens, UniProt O60907); assay: Saturation binding assay with biotinylated compound on coated TBL1; conditions: biotinylated compound 0.1 nM to 10 μM, 2 h at room temperature; read-out: IC50 of binding to TBL1 at the equilibrium
T2 construct: full length recombinant human TBL1 or full length recombinant human β-catenin; purchased ABNOVA
T2 sequence (O60907 1-577): T1 sequence (O60907 1-577)
Experimental: (§1) Additionally, Compound 1 can be modified to contain a functional group, such as biotin, capable of being attached to a solid support and test agents identified that disrupt the binding of immobilized Compound 1 to TBL1 protein. High affinity binding Elisa 96 well plate (Maxisorp, Nunc) was coated with 100 μl to each well of full length recombinant human TBL1 or full length recombinant human β-catenin (ABNOVA) diluted to a final concentration of 1 μg/ml in carbonate/bicarbonate coating buffer, sealed to prevent evaporation, and incubated O/N at 4° C. […] The sealed plate was incubated for 2 h at room temperature, washed 3 times with PBS 0.05% Tween-20, and then the bounded compound was detected by streptavidin-HRP conjugated antibody (Cell Signaling Tech) diluted in blocking buffer. Elisa was developed by addition of ABTS HRP substrate (SIGMA), and the optical density (OD) for each well was read with a microplate reader set to 405 nm. […]
(§2) To determine whether the ability of BC2059 to interfere with TBL1:β-catenin complex formation is due to direct interaction between TBL1 or β-catenin and the compound, we performed saturation binding assays in a in vitro system. […] The sealed plate was incubated for 2 h at RT, washed 3 times with PBS 0.05% Tween-20, and then the bounded compound was detected by streptavidin-HRP conjugated antibody (Cell Signaling Tech) diluted in blocking buffer. […]

TBL1:β-catenin complex = molecular target: T3, TBL1:β-catenin complex (Homo sapiens, UniProt O60907); assay: Sandwich ELISA capturing the TBL1:β-catenin complex from treated cell lysates; format: cell-based
T3 construct: endogenous in cells; host or cells: HCT15 (A2 also names HCT116)
T3 sequence (O60907 1-577): T1 sequence (O60907 1-577)
Experimental: HCT 15 cells are incubated with 20 mM LiCl to induce the Wnt pathway. After 24 h fresh medium with 20 mM LiCl and test agent is added at concentration in the range of 0.3 nM to 3 μM for 6 hours at 37° C. Protein lysates are prepared from cells lysed in RIPA buffer containing protease inhibitors, High affinity binding Sandwich Elisa assays were prepared in 96 well Maxisorp plates (NUNC) by coating with 100 μl in each well of unlabeled capture TBL1 antibody (Santa Cruz Biotech) diluted to a final concentration of 2 ug/ml in carbonate/bicarbonate coating buffer, and incubated 18 hours at 4° C. […] The sealed plate was incubated for 2 h at RT, washed 3 times with PBS 0.05% Tween-20, and then the complex and the recombinant protein was detected by antibody against β-catenin (Cell Signaling Tech) and secondary antibody HRP-conjugated (Sigma). Signal was detected by addition of ABTS HRP substrate
(SIGMA), and read with a microplate reader set to 405 nm.
To determine the amount of β-catenin captured, a standard curve was created using recombinant β-catenin (100 fg to 100 ng, Abnova) added instead of cell lysates in the above procedure. Intensity of signal was compared to values generated using test article treated lysates and approximate amount of bound beta catenin determined. […]

[2] = molecular target: T4, full length recombinant human β-catenin (Homo sapiens, UniProt P35222); assay: Saturation binding assay with biotinylated compound on coated β-catenin; conditions: biotinylated compound 0.1 nM to 10 μM, 2 h at room temperature
T4 construct: full length recombinant human β-catenin (ABNOVA); purchased ABNOVA
T4 sequence (P35222 1-781): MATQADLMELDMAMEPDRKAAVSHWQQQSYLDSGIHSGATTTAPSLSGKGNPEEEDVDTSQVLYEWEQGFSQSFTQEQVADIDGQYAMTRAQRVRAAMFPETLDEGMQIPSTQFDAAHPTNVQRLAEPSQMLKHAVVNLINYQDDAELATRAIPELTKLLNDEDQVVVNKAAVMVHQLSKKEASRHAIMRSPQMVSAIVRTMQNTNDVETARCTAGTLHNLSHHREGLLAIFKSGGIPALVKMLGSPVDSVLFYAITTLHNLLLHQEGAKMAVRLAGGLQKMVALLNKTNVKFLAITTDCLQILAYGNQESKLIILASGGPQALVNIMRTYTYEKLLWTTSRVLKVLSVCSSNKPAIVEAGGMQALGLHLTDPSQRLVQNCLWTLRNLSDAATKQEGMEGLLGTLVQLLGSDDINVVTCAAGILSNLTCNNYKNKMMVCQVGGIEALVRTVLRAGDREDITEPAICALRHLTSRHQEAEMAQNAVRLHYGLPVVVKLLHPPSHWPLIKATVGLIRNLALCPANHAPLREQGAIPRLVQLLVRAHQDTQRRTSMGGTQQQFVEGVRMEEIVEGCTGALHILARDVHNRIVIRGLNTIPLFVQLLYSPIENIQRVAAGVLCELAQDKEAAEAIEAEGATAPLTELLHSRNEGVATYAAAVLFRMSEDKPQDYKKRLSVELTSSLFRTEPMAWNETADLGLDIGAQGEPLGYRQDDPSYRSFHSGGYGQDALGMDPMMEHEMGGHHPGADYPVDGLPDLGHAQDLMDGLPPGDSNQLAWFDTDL
Experimental: as §1, §2

[3] = molecular target: T5, interaction of β-catenin with TBL1 (Homo sapiens, UniProt O60907); assay: Immunoprecipitation with TBL1 antibody and Western blot for β-catenin; format: cell-based; conditions: HCT15 cells treated for 6 h, Western blot
T5 construct: endogenous in cells; host or cells: HCT15 (A2 also names HCT116)
T5 sequence (O60907 1-577): T1 sequence (O60907 1-577)
Experimental: FIG. 2 depicts Western blot of an immunoprecipitation using TBL1 antibody. HCT15 cells were incubated with DMSO or indicated concentration of compound for 6 hours. Cell lysates were made and immunoprecipitated with TBL1 antibody. Proteins were separated on an SDS gel, transferred to a membrane and probed with antibodies to β-catenin and to TBL1. Briefly, the HCT15 cell line was seeded at 70% confluence in medium containing 10% FBS and penicillin/streptomycin. After 24 h the cells were treated with Compound 1 for 6 h. Cell lysates were harvested, precleared with protein NG sepharose (Santa Cruz Biotech), and TBL1 was immunoprecipitated using mouse TBL1 antibody (Santa Cruz Biotech) conjugated to protein G sepharose (Santa Cruz Biotech). Immunoprecipitated proteins were resolved on a 10% SDS-PAGE gel followed by transfer of proteins to a nitrocellulose membrane. Western blot analysis was done using antibodies to detect β-catenin protein (BD Transduction Laboratories) and TBL1 protein (Santa Cruz Biotech).

HCT116 cells = assay: Cell screening in HCT116 cells (Table 5); format: cell-based; conditions: Homo sapiens, HCT-116

Structure (SMILES): CN(Cc1ccncc1)Cc1ccc(-c2nc(-c3cccnc3)cc(=O)[nH]2)cc1 [Compound 10, 2-(4-((methyl(pyridin-4-ylmethyl)amino)methyl)phenyl)-6-(pyridin-3-yl)pyrimidin-4(3H)-one]
- EC50 (TBL1): 0.28 µM

Structure (SMILES): Cc1ccc(CN(C)Cc2ccc(-c3nc(-c4cccnc4)cc(=O)[nH]3)cc2)o1 [Compound 11]
- EC50 (TBL1): 0.29 µM

Structure (SMILES): C[C@@H]1C[C@H](C)CN(S(=O)(=O)c2ccc3c(c2)C(=NO)c2cc(S(=O)(=O)N4C[C@H](C)C[C@H](C)C4)ccc2C3=NO)C1 [Compound 1]
- IC50 [1]: 20 nM
- IC50 (TBL1:β-catenin complex; HCT 15 cells, 20 mM LiCl, test agent 6 hours, read-out: IC50, interference with TBL1 and β-catenin interaction): 10 to 20 nM
- binding to β-catenin [2]: not β-catenin
- disruption of the interaction of β-catenin with TBL1 [3]: able to disrupt the interaction of β-catenin with TBL1

Structure (SMILES): CC(C)N(C)Cc1ccc(-c2nc(-c3cccnc3)cc(=O)[nH]2)cc1 [Compound 12, 2-(4-((isopropyl(methyl)amino)methyl)phenyl)-6-(pyridin-3-yl)pyrimidin-4(3H)-one]
- EC50 (TBL1): 102 µM

Structure (SMILES): CC(Nc1ncnc2[nH]cnc12)c1cnn(-c2ccccc2F)c1 (stereo not shown) [Compound 15, N-(1-(1-(2-fluorophenyl)-1H-pyrazol-4-yl)ethyl)-9H-purin-6-amine]
- EC50 (HCT116 cells): 0.127 µM
- EC50 (TBL1): 0.054 µM
- EC50 (TBL1:β-catenin complex; compound 0.3 nM to 3 μM for 6 h, cell lysates, read-out: EC50 μM TBL1: β-Catenine): 0.41 µM
